These results are taken from US6632621B1, “G protein-coupled receptor-like receptors and modulators thereof” (priority 1999, dated 2003).

In general, EC50 refers to the concentration that produces a half-maximal response.

Read-outs that look alike come from different tables or passages of the source. Where a SMILES comes first, the peptide text is derived from it. Where no end group is shown, it is not given here. [ ]: non-standard residue; d: D form. Tyr(3-I) = N[C@@H](Cc1ccc(O)c(I)c1)C(=O)O

The target in one test is T1, CEGPCR16 receptor (Caenorhabditis elegans, UniProt Q9XXU4).
T1 sequence (Q9XXU4 1-365): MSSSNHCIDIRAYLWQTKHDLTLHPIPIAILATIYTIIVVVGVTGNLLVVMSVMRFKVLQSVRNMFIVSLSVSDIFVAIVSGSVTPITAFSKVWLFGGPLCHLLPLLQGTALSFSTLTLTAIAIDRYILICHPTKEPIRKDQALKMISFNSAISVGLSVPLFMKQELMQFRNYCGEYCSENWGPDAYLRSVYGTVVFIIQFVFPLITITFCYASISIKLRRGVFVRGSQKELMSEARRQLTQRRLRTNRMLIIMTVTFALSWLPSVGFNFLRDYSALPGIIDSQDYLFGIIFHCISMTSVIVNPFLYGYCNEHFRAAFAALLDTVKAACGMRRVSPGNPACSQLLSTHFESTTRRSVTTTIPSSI
The experiment in a line: [35S]GTPγS binding assay, CEGPCR16 expressed in CHO cells. It is filed as biochemical, C. elegans. As to conditions: Table 10; one range for the group of peptides; read-out: EC50 range. Here is the method: (§1) Recombinant pCR3.1 clones encoding invertebrate GPCR-like receptors were transformed into wild-type CHO-K1 cells and functional expression was achieved using a temperature-shift incubation protocol. The CHO-K1 cells were cultured at 37° C. in a humidified atmosphere of 5% CO2 in air in DMEM medium supplemented with 10% heat-inactivated fetal bovine serum (i.e., FBS), 10 μg/ml gentamicin, and 0.1 mM nonessential amino acids to give complete DMEM medium. Additionally, for incubations at temperatures lower than 37° C., the medium was fortified with 10 mM HEPES (pH 7.4). Cells were transfected with recombinant pCR3.1 clones containing GPCR-like receptor DNAs, using LipofectAMINE PLUS™, essentially according to the manufacturer's instructions. […] In separate plastic tubes, PLUS (20 μl/plate; Life Technologies) was added to 0.75 ml/plate of recombinant plasmid DNA in OptiMEM (5 μg/plate; Gibco/BRL—Life Technologies), mixed and incubated at room temperature for 15 minutes. Separately, LipofectAMINE (30 μl/plate) was mixed with 0.75 ml OptiMEM and added to the pre-complexed DNA/PLUS mixture and incubated at room temperature for 15 minutes. The culture medium was then replaced with serum-free transfection medium (DMEM, 5 ml/plate). The DNA-PLUS-LipofectAMINE complex was then added to the plates (1.5 ml/plate) and mixed gently into the medium, followed by a 3 hour incubation at 37° C. in 5% CO2. At this time, the medium was supplemented with complete DMEM medium containing 20% FBS (6.5 ml/plate) and incubation was continued at 37° C. in 5% CO2. After a total of 24 hours at 37° C. in 5% CO2, the medium was replaced with complete DMEM medium fortified with 10 mM HEPES (10 ml/plate) and the cells were moved to an incubator maintained at 28-30° C. in a humidified atmosphere of 5% CO2 in air. The incubation continued for an additional 24 hours, typically at the lower temperature indicated above. A plasmid encoding Green Fluorescent Protein (i.e., GFP, 4 μg/plate) was used for transient GFP expression in CHO-K1 cells to estimate the transfection yields under the same conditions as used for GPCR-like receptor polynucleotides.
(§2) To assess expression, membranes were prepared from transfected CHO-K1 cells. Transfected cells were washed once with ice-cold Dulbecco's phosphate-buffered saline (i.e., PBS), 5 ml per 10 cm plate, and the cells were scraped into 5 ml of the same buffer. Cell suspensions from multiple plates were combined and centrifuged at 500×g for 10 minutes at 4° C. The cell pellet was reconstituted in ice-cold TEE (25 mM Tris, pH 7.4, 5 mM EGTA, 5 mM EDTA). Convenient aliquots were snap-frozen in liquid nitrogen and stored at −70° C. After thawing, the cells were homogenized and centrifuged at 500×g for 5 minutes at 4° C. to pellet nuclei and unbroken cells. Tile supernatant was centrifuged at 47,000×g for 30 minutes at 4° C. The membrane pellet was washed once with TEE, resuspended in 20 mM HEPES, pH 7.4, 100 mM NaCl, 10 mM MgCl2, 1 mM EDTA (assay buffer), distributed into aliquots of 0.5-1.0 ml, and frozen in liquid nitrogen. Membrane aliquots were stored at −70° C. Membrane protein concentration was determined using the BCA Protein Assay Reagent from Pierce (Rockford, Ill.), with bovine serum albumin (i.e., BSA) as a standard.
(§3) Aliquots of cell membranes prepared as described above and stored at −70° C. were thawed, homogenized, and diluted into buffer containing 20 mM HEPES, pH 7.4, 10 mM MgCl2, 1 mM EDTA, and 100 mM NaCl at a concentration of 10-50 μg/ml. Reaction mixtures were prepared in 96-well polypropylene plate, Nunc. Twenty microliters of a 10× putative modulator compound (including but not limited to potential peptide ligands) solution or a water control (20 μl), 18.2 µM GDP (0.11 ml, 10 μM final concentration), and a membrane preparation were mixed and placed on ice. The modulator/ligand-GDP-membrane mixtures were incubated for 20 minutes at room temperature on a shaking platform and then placed on ice.

In another test the target is T2, CEGPCR5 (Caenorhabditis elegans, UniProt Q18179).
T2 sequence (Q18179 1-402): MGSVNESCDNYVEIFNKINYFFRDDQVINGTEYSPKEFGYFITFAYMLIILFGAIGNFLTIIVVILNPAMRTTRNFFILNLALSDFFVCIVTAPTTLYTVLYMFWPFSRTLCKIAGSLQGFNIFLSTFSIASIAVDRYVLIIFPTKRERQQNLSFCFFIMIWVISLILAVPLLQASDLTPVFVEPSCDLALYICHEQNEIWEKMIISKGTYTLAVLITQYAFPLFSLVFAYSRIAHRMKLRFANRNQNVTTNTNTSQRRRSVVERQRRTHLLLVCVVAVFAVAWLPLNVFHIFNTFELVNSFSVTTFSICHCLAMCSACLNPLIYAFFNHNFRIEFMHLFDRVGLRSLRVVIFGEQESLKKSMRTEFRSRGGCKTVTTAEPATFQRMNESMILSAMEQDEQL
Put plainly: [35S]GTPγS binding assay, CEGPCR5 expressed in CHO cells. It is filed as biochemical, C. elegans. Here is the method: as §1, §2, §3
(GTPγS resists hydrolysis and so accumulates on activated G proteins.)

Another test concerns the target T3, CEGPCR12h receptor (Caenorhabditis elegans, UniProt Q20275).
T3 sequence (Q20275 1-402): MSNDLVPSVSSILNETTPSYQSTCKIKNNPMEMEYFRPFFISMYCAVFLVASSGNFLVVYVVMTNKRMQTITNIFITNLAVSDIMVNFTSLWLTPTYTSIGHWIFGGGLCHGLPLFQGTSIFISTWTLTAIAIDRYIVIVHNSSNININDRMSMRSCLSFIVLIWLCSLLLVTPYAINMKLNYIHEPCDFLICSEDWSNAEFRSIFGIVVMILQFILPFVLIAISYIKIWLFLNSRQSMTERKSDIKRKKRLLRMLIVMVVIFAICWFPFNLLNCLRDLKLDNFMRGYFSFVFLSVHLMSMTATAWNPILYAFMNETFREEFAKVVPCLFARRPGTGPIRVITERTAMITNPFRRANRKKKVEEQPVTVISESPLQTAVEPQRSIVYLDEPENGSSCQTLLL
Put plainly: [35S]GTPγS binding assay, CEGPCR12h expressed in CHO cells. It is filed as biochemical, C. elegans. Here is the method:
as §1, §2, §3

For a further test, the target named is T4, CEGPCR4 (C. elegans).
T4 construct: Expressed in CHO cells; also called CEGPCR4 receptor; CEGPCR4/CHO membranes
T4 chain: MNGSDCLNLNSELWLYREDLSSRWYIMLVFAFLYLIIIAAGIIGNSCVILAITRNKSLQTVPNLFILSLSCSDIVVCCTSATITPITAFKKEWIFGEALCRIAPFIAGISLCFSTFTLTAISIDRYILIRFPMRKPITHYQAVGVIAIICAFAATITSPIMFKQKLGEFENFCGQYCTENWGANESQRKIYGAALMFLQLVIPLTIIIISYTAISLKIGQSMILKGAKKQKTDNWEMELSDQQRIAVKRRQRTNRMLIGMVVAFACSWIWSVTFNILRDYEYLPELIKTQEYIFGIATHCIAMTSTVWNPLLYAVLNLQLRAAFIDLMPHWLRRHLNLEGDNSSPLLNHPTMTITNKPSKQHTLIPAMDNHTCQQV
Put plainly: competition binding assay, CEGPCR4/CHO membranes; IC50 range printed once for block r39-r54.

[1] abbreviates: EC50 range, Table 9, one range for the group of peptides.

For SAEPFGTMRF-NH2 [SAEPFGTMRF-NH2], the EC50 on CEGPCR16 receptor was 60 to 300 nM.
KPNFLRF-NH2 [KPNFLRF-NH2]: the concentration for a half-maximal effect (EC50) at CEGPCR5 is 1000 to 8000 nM.
Still for that read-out and setting: the result for DPSFLRF-NH2 [DPSFLRF-NH2] reads 80 to 800 nM.
Consider AVPGVLRF-NH2 [AVPGVLRF-NH2], for which, at CEGPCR16 receptor, the 50% effective concentration (EC50) was 700 to 4600 nM. Besides, the “activity at single concentration” value on CEGPCR12h receptor (Table 11, peptides tested at 5 μM) was “active at”.
Consider YGLGPRPLRF-NH2 [YGLGPRPLRF-NH2], for which the concentration giving a half-maximal response (EC50) on CEGPCR5 (setting [1]) lay within 80 to 800 nM.
As for AGAKFIRF-NH2 [AGAKFIRF-NH2], the EC50 on CEGPCR5 was 1000 to 8000 nM.
TNRNFLRF-NH2 [TNRNFLRF-NH2] had an EC50 at CEGPCR5 (setting [1]) of 80 to 800 nM.
For `CC(C)C[C@H](NC(=O)[C@H](Cc1ccccc1)NC(=O)[C@@H](NC(=O)[C@H](Cc1c[nH]cn1)NC(=O)[C@H](CC(=O)O)NC(=O)[C@@H](NC(=O)[C@H](CC(=O)O)NC(=O)[C@@H]1CCCN1C(=O)[C@@H](N)Cc1ccc(O)c(I)c1)C(C)C)C(C)C)C(=O)N[C@@H](CCCNC(=N)N)C(=O)N[C@@H](Cc1ccccc1)C(N)=O` [[I]Y^0PDVDHVFLRF-NH2] (H-[Tyr(3-I)]PDVDHVFLRF-NH2), the concentration for a half-maximal effect (EC50) is 478 nM on CEGPCR12h receptor (EC50) and 300 to 500 nM at CEGPCR12h receptor (EC50 range, Table 11, one range for the group, results apply to all CEGPCR12 isoforms).
Consider KHEYLRF-NH2 [KHEYLRF-NH2], for which the concentration for a half-maximal effect (EC50) at CEGPCR5 lay in the range of 1000 to 8000 nM.
Take EIPGVLRF-NH2 [EIPGVLRF-NH2]: the concentration for a half-maximal effect (EC50) at CEGPCR16 receptor fell in the range of 700 to 4600 nM.
On CEGPCR5 (setting [1]), ARGPQLRLRF-NH2 [ARGPQLRLRF-NH2] registered a concentration giving a half-maximal response (EC50) of 1000 to 8000 nM.
FDDYGHLRF-NH2 [FDDYGHLRF-NH2]: the concentration for a half-maximal effect (EC50) at CEGPCR12h receptor (Table 11, one range for the group, results apply to all CEGPCR12 isoforms, read-out: EC50 range) was 300 to 500 nM.

B1: Ac-GVLRF-NH2 (peptide)
peptide: Ac-GVLRF-NH2
notes: synthetic
For B1, the binding result in the test with CEGPCR4 is “binds”.

B2: VPGVLRF-NH2 (peptide)
peptide: VPGVLRF-NH2
notes: synthetic
Consider B2, for which, in the test with CEGPCR4, the binding result is reported as “binds”.

B3: Y-GVLRF-NH2 (peptide)
peptide: YGVLRF-NH2
notes: synthetic
Consider B3, for which the binding result with CEGPCR4 is “binds”.

B4: PGVLRF-NH2 (peptide)
peptide: PGVLRF-NH2
notes: synthetic
Turning to B4, the binding result with CEGPCR4 is on record as “binds”.

B5: GVLRF-NH2 (peptide)
peptide: GVLRF-NH2
notes: synthetic
As for B5, in the test with CEGPCR4, the binding result is recorded as “binds”.
